We go through three compounds from patent US6872743B2, “sPLA2 inhibitors” (Eli Lilly and Company, priority 2000, dated 2005).

SMILES strings stand for the structures.

The target of the experiment is T1, recombinant human secreted phospholipase A2 (Homo sapiens, UniProt P14555).
T1 sequence (P14555 21-144): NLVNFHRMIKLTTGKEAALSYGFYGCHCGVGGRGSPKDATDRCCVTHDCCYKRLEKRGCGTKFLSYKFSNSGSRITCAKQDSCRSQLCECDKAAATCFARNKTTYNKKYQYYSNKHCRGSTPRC
Kind of experiment: chromogenic assay for inhibitors of recombinant human secreted phospholipase A2. The class given is biochemical. To be noted: diheptanoyl thio-PC substrate, pH 7.5, 40° C. for 30 minutes, absorbance at 405 nanometers, titrated in triplicate. The text has this: The following chromogenic assay procedure was used to identify and evaluate inhibitors of recombinant human secreted phospholipase A2. The assay described herein has been adapted for high volume screening using 96 well microtiter plates. A general description of this assay method is found in the article, “Analysis of Human Synovial Fluid Phospholipase A2 on Short Chain Phosphatidylcholine-Mixed Micelles: Development of a Spectrophotometric Assay Suitable for a Microtiterplate Reader”, by Laure J. Reynolds, Lori L. Hughes, and Edward A Dennis, Analytical Biochemistry, 204, pp. 190-197, 1992 (the disclosure of which is incorporated herein by reference):
A measured volume of racemic dipheptanoyl thio PC supplied in chloroform at a concentration of 100 mg/ml is taken to dryness and redissolved in 10 millimolar TRITON X-100™ nonionic detergent aqueous solution. Reaction Buffer is added to the solution, then DTNB to give the Reaction Mixture.
The reaction mixture thus obtained contains 1 mM diheptanoly thio-PC substrate, 0.29 mm Triton X-100™ detergent, and 0.12 mm DTMB in a buffered aqueous solution at pH 7.5.
• 1. Add 0.2 ml reaction mixture to all wells; • 2. Add 10 ul test compound (or solvent blank) to appropriate wells, mix 20 seconds; • 3. Add 50 nanograms of sPLA2 (10 microliters) to appropriate wells; • 4. Incubate plate at 40° C. for 30 minutes; • 5. Read absorbance of wells at 405 nanometers with an automatic plate reader.
Tests were done in triplicate. Typically, compounds were tested at a final concentration of 5 ug/ml. […] Lack of color development at 405 nanometers evidenced inhibition. Compounds initially found to be active were re-assayed to confirm their activity and, if sufficiently active, IC50 values were determined. […] In all cases, % inhibition measured at 405 nanometers generated by enzyme reactions containing inhibitors relative to the uninhibited control reactions was determined. […] IC50 values were determined by plotting log concentration versus inhibition values in the range from 10-90% inhibition.

Broadly, the IC50 is the midpoint of a concentration-inhibition curve.

In the case of `NC(=O)c1cccc2c1c1c(OCC(=O)O)cc3c(c1n2Cc1ccccc1)CCCC3` [Example 1, (11-Benzyl-7-carbamoyl-2,3,4,11-tetraydro-1H-benzo[a]carbazol-6-yloxy)acetic Acid], the IC50 was 0.015 µM.
With `NC(=O)c1cccc2c1c1c(OCC(=O)O)cc3c(c1n2Cc1ccccc1)CCC3` [Example 2, (10-Benzyl-6-carbamoyl-1,2,3,10-tetraydrocyclopenta[a]carbazol-5-yloxy)acetic Acid], the IC50 was found to be 0.012 µM.
The same measure for `COC(=O)COc1cc2ccccc2c2c1c1c(C(N)=O)cccc1n2Cc1ccccc1` [Example 3, (11-Benzyl-7-carbamoyl-11H-benzo [a]carbazol-6-yloxy)acetic acid methyl ester]: 0.0094 µM.
